Assay results published in patent US10201507B2, “Modulators of intracellular chloride concentration for treating fragile X syndrome” (NEUROCHLORE, priority 2012, dated 2019).
Entries after “also recorded” stand apart in the source; their conditions may differ.

Assays:
CA3 pyramidal cells = assay: Single GABAA channel recordings of driving force of GABA (DFGABA) in hippocampal slices, drug applied to slice; format: cell-based, mouse; conditions: FXS neurons at P0 (birth); oxytocin 1 μM
Procedure: Mice lacking Fmr1 (referred to as Fmr1^−/−) were bred in our animal facility. […] For all experiments, Fmr1^−/− mice were used with wild-type littermates as a control group. The offspring were used for experiments at E18, P0, P2, P4, P7, P9, P15 and P30. Experiments were carried out on offspring of either sex and in a blind manner at E18 and P0.
Experiments were performed on fetuses and neonatal wild type and Fragile X mice from the embryonic day […] to the postnatal day P38 (term is E21). All of the research was performed in compliance with the national guidelines on human care and use of laboratory animals and approved by INSERM.
Hippocampal slices (300-500 μm thick) were prepared using a Microm tissue slicer (International GmbH, Germany) as described previously (Tyzio et al., 2006, 2008). Slices were kept in oxygenated (95% O2/5% CO2) artificial cerebrospinal fluid (ACSF) of the following composition (in mM): NaCl 126, KCl 3.5, CaCl2 2.0, MgCl2 1.3, NaHCO3 25, NaH2PO4 1.2 and glucose 11 (pH 7.4) at room temperature (20-22° C.) at least 1 hour before use.
For recordings, slices were placed into a conventional fully submerged chamber superfused with ACSF at a rate of 2-3 ml/min at room temperature. Patch clamp recordings from visually identified CA3 pyramidal cells in cell-attached configuration were performed using EPC-10 amplifier (HEKA Elektronik Dr. Schulze GmbH, Lambrecht/Pfalz, Germany). Patch pipette solution for recordings of single GABAA channels contained (in mM): NaCl 120, KCl 5, TEA-Cl 20, 4-aminopyridine 5, CaCl2 0.1, MgCl2 10, glucose 10, Hepes-NaOH 10 buffered to pH 7.2-7.3 and GABA 2 μM. Analysis of currents through single channels and current-voltage relationships were performed using Clampfit 9.2 (Axon Instruments, Union City, Calif.). Recordings were digitized (10 kHz) online with Digidata-1200 interface card (Axon Instruments, Union City, Calif.) and analyzed offline with Axon package, MiniAnalysis (S (Synaptsoft, Decatur, Ga.), and Origin (Microcal Software, Northampton, Mass.). […]

hippocampal slices = assay: Extracellular field potentials / spike frequency in hippocampal slices at P15 on isoguvacine; format: cell-based, mouse; conditions: for normalized spike frequency: P15, isoguvacine (10 μM)
From the text: Recording were made in the hippocampal slices using tungsten wire electrodes (diameter: 50 μm, California Fine Wire, Grover Beach, Calif.) and a low-noise multichannel DAM-8A amplifiers (WPI, GB; […]; gain: ×1000). The signals were digitized using an analogue-to-digital converter (Digidata 1440A, Axon Instruments, USA). pCLAMP 10.1, Clampfit 10.1 (Axon Instruments, USA), MiniAnalysis 6.03 (Synaptosoft, Decatur, Calif.) and Origin 7.5 (Microcal Software, USA) programs were used for the acquisition and analysis of the synaptic activities. Sampling interval per signal was 100 microseconds (10 kHz).
To test whether depolarizing actions of GABA were associated with neuronal excitation, the effect of the GABAA receptor agonist isoguvacine was tested. […] To test whether maternal treatment with bumetanide before delivery switches the action of GABA from excitatory to inhibitory in offsprings at P15, pregnant females were treated orally 1 day before delivery with bumetanide (2-2.5 mg/kg in drinking water) and juvenile offspring neurons recorded at P15. […] Therefore, excitatory actions of GABA during delivery produce long term deleterious effects on electrophysiological parameters of FXS juvenile neurons. In FXS mice, GABAergic inputs are excitatory and contribute to hyperexcitability of the network. Bumetanide decreases [Cl^−]i and consequently reduces contribution of excitatory GABAergic inputs in the overall network activity.

In the case of `CC[C@H](C)[C@@H]1NC(=O)[C@H](Cc2ccc(O)cc2)NC(=O)[C@@H](N)CSSC[C@@H](C(=O)N2CCC[C@H]2C(=O)N[C@@H](CC(C)C)C(=O)NCC(N)=O)NC(=O)[C@H](CC(N)=O)NC(=O)[C@H](CCC(N)=O)NC1=O` [oxytocin], the “Effect on DFGABA (in words)” value (CA3 pyramidal cells) is reported as “shift it to hyperpolarization; also recorded: shifted DFGABA”.
In the case of `O=C(O)C1=CCNCC1` [isoguvacine], the normalized spike frequency (hippocampal slices; FXS mice) is reported as 165.8±13.5%, the normalized spike frequency (hippocampal slices; WT mice) is reported as 67.9±6.1% and the “Effect on field potential recordings (in words)” value (hippocampal slices; naive neurons, P15, isoguvacine 2 μM) is reported as “inhibited or did not affect field potential recordings”.
